Measured values taken from patent US20250332178A1, “METHODS OF TREATING MYCOBACTERIAL INFECTIONS USING TETRACYCLINE COMPOUNDS” (priority 2018, published 2025).
In brackets after ≈: the same amount, converted by molar mass.

Key:
Assay in all cases: MIC by broth microdilution in CAMHB, clinical isolates
Format in all cases: cell-based
[1] = system: Mycobacterium abscessus
Experimental: (§1) A total of 24 clinical isolates of Mycobacterium abscessus, 22 clinical isolates of Mycobacterium chelonae and 20 clinical isolates of Mycobacterium fortuitum were tested in the study. The study also used the antibiotics tigecycline, doxycycline and amikacin for comparison purposes. […] Amikacin was dissolved in DMSO prior to freezing at −20° C. For susceptibility testing, stock solutions of antibiotic compounds were serially diluted in 50 μL of cation adjusted Mueller-Hinton broth (CAMHB) in polystryrene 96-well round-bottom microtiter plates. To each well, 50 μL of the appropriate mycobacterial cell suspension was added to yield a final concentration of about 1×10^5 CFU/mL. The inoculum used for each isolate was measured by titration in saline with Tween 80 and plating on MH agar. The Mycobacterium abscessus and Mycobacterium fortuitum titer plates were incubated at 37° C. in ambient air for 3-4 days and 5-7 days, respectively. The Mycobacterium chelonae titer plates were incubated at 30° C. in ambient air for 3-5 days. Each isolate was tested at least in duplicate. The MIC was defined as the lowest concentration of antimicrobial agent yielding no visible turbidity.

[2] = system: Mycobacterium chelonae
Experimental: as §1

[3] = system: Mycobacterium fortuitum
Experimental: as §1

[4] = 24 clinical isolates (tigecycline: subset N=14)

NCC[C@H](O)C(=O)N[C@@H]1C[C@H](N)[C@@H](O[C@H]2O[C@H](CN)[C@@H](O)[C@H](O)[C@H]2O)[C@H](O)[C@H]1O[C@H]1O[C@H](CO)[C@@H](O)[C@H](N)[C@H]1O [Amikacin, amikacin]
MIC50 [1, 4]: 2 µg/mL (≈ 3.42 µM) | MIC90 [1, 4]: 8 µg/mL (≈ 13.7 µM) | MIC ([1]; isolate No. 1, BB2): 8 µg/mL (≈ 13.7 µM) | MIC ([1]; isolate No. 2, BB4): 8 µg/mL (≈ 13.7 µM) | MIC ([1]; isolate No. 3, 5922): 2 µg/mL (≈ 3.42 µM) | MIC ([1]; isolate No. 4, BB3): 2 µg/mL (≈ 3.42 µM) | MIC ([1]; isolate No. 5, BB6): 4 µg/mL (≈ 6.83 µM) | MIC ([1]; isolate No. 6, 5908): 2 µg/mL (≈ 3.42 µM) | MIC ([1]; isolate No. 7, BB7): 0.5 µg/mL (≈ 0.854 µM) | MIC ([1]; isolate No. 8, 6031): 0.5 µg/mL (≈ 0.854 µM) | MIC ([1]; isolate No. 9, 5785): 1 µg/mL (≈ 1.71 µM) | MIC ([1]; isolate No. 10, BB8): 2 µg/mL (≈ 3.42 µM) | MIC ([1]; isolate No. 11, 6111): 2 µg/mL (≈ 3.42 µM) | MIC ([1]; isolate No. 12, 6005): 4 µg/mL (≈ 6.83 µM) | MIC ([1]; isolate No. 13, 5605): 2 µg/mL (≈ 3.42 µM) | MIC ([1]; isolate No. 14, 5931): 0.5 µg/mL (≈ 0.854 µM) | MIC ([1]; isolate No. 15, BB1): 2 µg/mL (≈ 3.42 µM) | MIC ([1]; isolate No. 16, BB5): 8 µg/mL (≈ 13.7 µM) | MIC ([1]; isolate No. 17, 5812): 4 µg/mL (≈ 6.83 µM) | MIC ([1]; isolate No. 18, 5901): 2 µg/mL (≈ 3.42 µM) | MIC ([1]; isolate No. 19, 5960): 1 µg/mL (≈ 1.71 µM) | MIC ([1]; isolate No. 20, 6142): 4 µg/mL (≈ 6.83 µM) | MIC ([1]; isolate No. 21, 5922): 2 µg/mL (≈ 3.42 µM) | MIC ([1]; isolate No. 22, LT 949): 8 µg/mL (≈ 13.7 µM) | MIC ([1]; isolate No. 23, 6025): 8 µg/mL (≈ 13.7 µM) | MIC ([1]; isolate No. 24, 6153): 8 µg/mL (≈ 13.7 µM) | MIC50 ([2]; 22 clinical isolates): 4 µg/mL (≈ 6.83 µM) | MIC90 ([2]; 22 clinical isolates): 8 µg/mL (≈ 13.7 µM) | MIC ([2]; isolate No. 1, MC 7323): 4 µg/mL (≈ 6.83 µM) | MIC ([2]; isolate No. 2, MC 7534): 8 µg/mL (≈ 13.7 µM) | MIC ([2]; isolate No. 3, MC 7368): 16 µg/mL (≈ 27.3 µM) | MIC ([2]; isolate No. 4, MC 7514): 8 µg/mL (≈ 13.7 µM) | MIC ([2]; isolate No. 5, MC 7584): 4 µg/mL (≈ 6.83 µM) | MIC ([2]; isolate No. 6, MC 7192): 4 µg/mL (≈ 6.83 µM) | MIC ([2]; isolate No. 7, MC 7466): 2 µg/mL (≈ 3.42 µM) | MIC ([2]; isolate No. 8, MC 7533): 4 µg/mL (≈ 6.83 µM) | MIC ([2]; isolate No. 9, MC 7579): 4 µg/mL (≈ 6.83 µM) | MIC ([2]; isolate No. 10, MC 7614): 8 µg/mL (≈ 13.7 µM) | MIC ([2]; isolate No. 11, MC 7414): 4 µg/mL (≈ 6.83 µM) | MIC ([2]; isolate No. 12, MC 7313): 2 µg/mL (≈ 3.42 µM) | MIC ([2]; isolate No. 13, MC 7281): 8 µg/mL (≈ 13.7 µM) | MIC ([2]; isolate No. 14, MC 7328): 8 µg/mL (≈ 13.7 µM) | MIC ([2]; isolate No. 15, MC 7294): 8 µg/mL (≈ 13.7 µM) | MIC ([2]; isolate No. 16, MC 14-S-03): 4 µg/mL (≈ 6.83 µM) | MIC ([2]; isolate No. 17, MC 14-S-04): 4 µg/mL (≈ 6.83 µM) | MIC ([2]; isolate No. 18, MC 14-S-05): 8 µg/mL (≈ 13.7 µM) | MIC ([2]; isolate No. 19, MC 14-S-06): 8 µg/mL (≈ 13.7 µM) | MIC ([2]; isolate No. 20, MC 14-S-07): 4 µg/mL (≈ 6.83 µM) | MIC ([2]; isolate No. 21, MC 35757): 2 µg/mL (≈ 3.42 µM) | MIC ([2]; isolate No. 22, MC 7302): 4 µg/mL (≈ 6.83 µM) | MIC50 ([3]; 20 clinical isolates): 0.5 µg/mL (≈ 0.854 µM) | MIC90 ([3]; 20 clinical isolates): 4 µg/mL (≈ 6.83 µM) | MIC ([3]; isolate No. 1, 3349): 8 µg/mL (≈ 13.7 µM) | MIC ([3]; isolate No. 2, 3499): 0.25 µg/mL (≈ 0.427 µM) | MIC ([3]; isolate No. 3, 2797): 2 µg/mL (≈ 3.42 µM) | MIC ([3]; isolate No. 4, 32): 1 µg/mL (≈ 1.71 µM) | MIC ([3]; isolate No. 5, 33): 2 µg/mL (≈ 3.42 µM) | MIC ([3]; isolate No. 6, 3489): 1 µg/mL (≈ 1.71 µM) | MIC ([3]; isolate No. 7, 3491): 1 µg/mL (≈ 1.71 µM) | MIC ([3]; isolate No. 8, 54): 0.5 µg/mL (≈ 0.854 µM) | MIC ([3]; isolate No. 9, 38): 0.5 µg/mL (≈ 0.854 µM) | MIC ([3]; isolate No. 10, 36): 1 µg/mL (≈ 1.71 µM) | MIC ([3]; isolate No. 11, 3480): 0.5 µg/mL (≈ 0.854 µM)
